Key:
bermudagrass = experiment: Test C pre-/postemergence test; type: in vivo, Cynodon dactylon
How it was run: (§1)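 Test chemicals were formulated with surfactant in a non-phytotoxic solvent and sprayed both on freshly planted seeds (preemergence) and on 1- to 4-leaf plants of 2–18 cm (postemergence). Flooded-paddy pots received compound directly into 3 cm of standing water, maintained for the test.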

barnyardgrass = experiment: Test C flooded paddy test; type: in vivo, Echinochloa crus-galli; details: Flood, scale 0 to 100, 0 no effect, 100 complete control, 13 to 15 days
How it was run: (§2)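 Compound was added to standing water 3 cm above soil, flood maintained, and plants held in a greenhouse before visual scoring against controls at 13 to 15 days.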

velvetleaf = experiment: Test A pre-/postemergence greenhouse test; type: in vivo, Abutilon theophrasti; details: for Plant response rating, Velvetleaf: 0 to 100 scale where 0 is no effect and 100 is complete control; for Velvetleaf plant response rating: 0 to 100 scale
How it was run: (§3)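 Pre: directed soil spray on seeded loam/sand. Post: foliar spray, plants 2–10 cm, 1–2 leaf stage, applied concurrently. Vehicle: non-phytotoxic solvent + surfactant. Greenhouse ~10 d; visual injury rating vs untreated controls.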

morningglory = experiment: Test C pre-/postemergence test; type: in vivo, Ipomoea coccinea
How it was run: as §1

soybean = experiment: Test C pre-/postemergence test; type: in vivo, Glycine max; details: for Soybean plant response rating: preemergence, scale 0 (no effect) to 100 (complete control)
How it was run: as §1

giant foxtail [1] = experiment: Test A pre-/postemergence greenhouse test; type: in vivo, Setaria faberi; details: for Plant response rating, Foxtail, Giant: 0 to 100 scale where 0 is no effect and 100 is complete control; for Foxtail, Giant plant response rating: 0 to 100 scale
How it was run: as §3

johnsongrass = experiment: Test C pre-/postemergence test; type: in vivo, Sorghum halepense
How it was run: as §1

corn = experiment: Test A pre-/postemergence greenhouse test; type: in vivo, Zea mays; details: for Plant response rating, Corn: 0 to 100 scale where 0 is no effect and 100 is complete control; for Corn plant response rating: 0 to 100 scale
How it was run: as §3

catchweed bedstraw = experiment: Test C pre-/postemergence test; type: in vivo, Galium aparine
How it was run: as §1

giant foxtail [2] = experiment: Test C pre-/postemergence test; type: in vivo, Setaria faberii
How it was run: as §1

downy brome = experiment: Test C pre-/postemergence test; type: in vivo, Bromus tectorum
How it was run: as §1

Surinam grass = experiment: Test C pre-/postemergence test; type: in vivo, Brachiaria decumbens
How it was run: as §1

crabgrass = experiment: Test C pre-/postemergence test; type: in vivo, Digitaria sanguinalis
How it was run: as §1

wheat = experiment: Test A pre-/postemergence greenhouse test; type: in vivo, Triticum aestivum; details: for Plant response rating, Wheat: 0 to 100 scale where 0 is no effect and 100 is complete control; for Wheat plant response rating: 0 to 100 scale
How it was run: as §3

pigweed = experiment: Test C pre-/postemergence test; type: in vivo, Amaranthus retroflexus
How it was run: as §1

rice = experiment: Test C flooded paddy test; type: in vivo, Oryza sativa; details: Flood, scale 0 to 100, 0 no effect, 100 complete control, 13 to 15 days
How it was run: as §2

lambsquarters = experiment: Test C pre-/postemergence test; type: in vivo, Chenopodium album
How it was run: as §1

[3] = 125 g ai/ha, preemergence, scale 0 (no effect) to 100 (complete control)
[4] = Postemergence, 62 g ai/ha, scale 0 to 100, 0 no effect, 100 complete control
[5] = Postemergence, 125 g ai/ha, scale 0 to 100, 0 no effect, 100 complete control
[6] = Postemergence, 250 g ai/ha, scale 0 to 100, 0 no effect, 100 complete control
[7] = Preemergence, 31 g ai/ha, scale 0 to 100 (0 no effect, 100 complete control)
[8] = preemergence, 250 g ai/ha, scale 0 (no effect) to 100 (complete control)
[9] = Postemergence, 500 g ai/ha, 0 is no effect, 100 is complete control
[10] = Preemergence, 125 g ai/ha, 0 no effect, 100 complete control
[11] = 62 g ai/ha, Preemergence, scale 0 to 100

## [O-][n+]1cc(Cl)ccc1[S+]([O-])Cc1c(C(F)(F)F)nn(CC(F)(F)F)c1Cl (stereo not shown) [Compound 47]
bermudagrass; 62 g ai/ha, Preemergence, scale 0 to 100 (0 no effect, 100 complete control)
  Bermudagrass plant response rating: 100
bermudagrass; [3]
  Bermudagrass plant response rating: 100
bermudagrass; Postemergence, 31 g ai/ha
  Plant response rating (0 to 100), Bermudagrass: 0
bermudagrass; [4]
  Plant response rating, Bermudagrass: 0
bermudagrass; [5]
  Plant response rating, Bermudagrass: 0
bermudagrass; [6]
  Plant response rating, Bermudagrass: 0
bermudagrass; [7]
  Plant response rating, Bermudagrass: 80
bermudagrass; [8]
  Bermudagrass plant response rating: 100
barnyardgrass; 62 g ai/ha
  Plant response rating, Barnyardgrass: 50
barnyardgrass; 250 g ai/ha
  Plant response rating, Barnyardgrass: 80
velvetleaf; Postemergence, 125 g ai/ha
  Plant response rating, Velvetleaf: 60
velvetleaf; [9]
  Velvetleaf plant response rating: 70
velvetleaf; [10]
  Velvetleaf plant response rating: 0
velvetleaf; Preemergence, 500 g ai/ha
  Plant response rating, Velvetleaf: 100
morningglory; [11]
  Morningglory plant response rating: 100
morningglory; [3]
  Morningglory plant response rating: 100
morningglory; Postemergence, 31 g ai/ha
  Plant response rating (0 to 100), Morningglory: 0
morningglory; [4]
  Plant response rating, Morningglory: 0
morningglory; [5]
  Plant response rating, Morningglory: 0
morningglory; [6]
  Plant response rating, Morningglory: 60
morningglory; [7]
  Plant response rating, Morningglory: 100
morningglory; [8]
  Morningglory plant response rating: 100
soybean; 125 g ai/ha
  Soybean plant response rating: 60
soybean; Postemergence, 31 g ai/ha
  Plant response rating (0 to 100), Soybean: 5
soybean; Postemergence, 62 g ai/ha
  Plant response rating (0 to 100), Soybean: 15
soybean; [5]
  Plant response rating, Soybean: 20
soybean; [6]
  Plant response rating, Soybean: 50
soybean; [7]
  Plant response rating, Soybean: 0
soybean; 250 g ai/ha
  Soybean plant response rating: 80
Giant foxtail [1]; Postemergence, 125 g ai/ha
  Plant response rating, Foxtail, Giant: 80
Giant foxtail [1]; [9]
  Foxtail, Giant plant response rating: 90
Giant foxtail [1]; [10]
  Foxtail, Giant plant response rating: 100
Giant foxtail [1]; Preemergence, 500 g ai/ha
  Plant response rating, Foxtail, Giant: 100
johnsongrass; [11]
  Johnsongrass plant response rating: 90
johnsongrass; [3]
  Johnsongrass plant response rating: 100
johnsongrass; Postemergence, 31 g ai/ha
  Plant response rating (0 to 100), Johnsongrass: 0
johnsongrass; [4]
  Plant response rating, Johnsongrass: 0
johnsongrass; [5]
  Plant response rating, Johnsongrass: 0
johnsongrass; [6]
  Plant response rating, Johnsongrass: 85
johnsongrass; [7]
  Plant response rating, Johnsongrass: 85
johnsongrass; [8]
  Johnsongrass plant response rating: 100
corn; Postemergence, 125 g ai/ha
  Plant response rating, Corn: 50
corn; [9]
  Corn plant response rating: 70
corn; [10]
  Corn plant response rating: 50
corn; Preemergence, 500 g ai/ha
  Plant response rating, Corn: 90
Catchweed bedstraw; [11]
  Galium plant response rating: 85
Catchweed bedstraw; [3]
  Galium plant response rating: 90
Catchweed bedstraw; [7]
  Plant response rating, Galium: 80
Catchweed bedstraw; [8]
  Galium plant response rating: 100
Giant foxtail [2]; [11]
  Foxtail, Giant plant response rating: 100
Giant foxtail [2]; [3]
  Foxtail, Giant plant response rating: 100
Giant foxtail [2]; Postemergence, 31 g ai/ha
  Plant response rating (0 to 100), Foxtail, Giant: 0
Giant foxtail [2]; [4]
  Plant response rating, Foxtail, Giant: 0
Giant foxtail [2]; [5]
  Plant response rating, Foxtail, Giant: 0
Giant foxtail [2]; [6]
  Plant response rating, Foxtail, Giant: 50
Giant foxtail [2]; [7]
  Plant response rating, Foxtail, Giant: 85
Giant foxtail [2]; [8]
  Foxtail, Giant plant response rating: 100
Downy brome; [11]
  Bromegrass, Downy plant response rating: 0
Downy brome; [3]
  Bromegrass, Downy plant response rating: 10
Downy brome; Postemergence, 31 g ai/ha
  Plant response rating (0 to 100), Bromegrass, Downy: 0
Downy brome; [4]
  Plant response rating, Bromegrass, Downy: 0
Downy brome; [5]
  Plant response rating, Bromegrass, Downy: 0
Downy brome; [6]
  Plant response rating, Bromegrass, Downy: 10
Downy brome; [7]
  Plant response rating, Bromegrass, Downy: 0
Downy brome; [8]
  Bromegrass, Downy plant response rating: 50
Surinam grass; [11]
  Surinam Grass plant response rating: 80
Surinam grass; [3]
  Surinam Grass plant response rating: 100
Surinam grass; Postemergence, 31 g ai/ha
  Plant response rating (0 to 100), Surinam Grass: 0
Surinam grass; Postemergence, 62 g ai/ha
  Plant response rating (0 to 100), Surinam Grass: 0
Surinam grass; [5]
  Plant response rating, Surinam Grass: 0
Surinam grass; [6]
  Plant response rating, Surinam Grass: 60
Surinam grass; [7]
  Plant response rating, Surinam Grass: 50
Surinam grass; [8]
  Surinam Grass plant response rating: 100
crabgrass; [11]
  Crabgrass, Large plant response rating: 100
crabgrass; [3]
  Crabgrass, Large plant response rating: 100
crabgrass; Postemergence, 31 g ai/ha
  Plant response rating (0 to 100), Crabgrass, Large: 0
crabgrass; [4]
  Plant response rating, Crabgrass, Large: 0
crabgrass; [5]
  Plant response rating, Crabgrass, Large: 0
crabgrass; [6]
  Plant response rating, Crabgrass, Large: 30
crabgrass; [7]
  Plant response rating, Crabgrass, Large: 98
crabgrass; [8]
  Crabgrass, Large plant response rating: 100
wheat; Postemergence, 125 g ai/ha
  Plant response rating, Wheat: 50
wheat; [9]
  Wheat plant response rating: 60
wheat; [10]
  Wheat plant response rating: 60
wheat; Preemergence, 500 g ai/ha
  Plant response rating, Wheat: 90
pigweed; [11]
  Pigweed plant response rating: 100
pigweed; [3]
  Pigweed plant response rating: 100
pigweed; Postemergence, 31 g ai/ha
  Plant response rating (0 to 100), Pigweed: 0
pigweed; Postemergence, 62 g ai/ha
  Plant response rating (0 to 100), Pigweed: 0
pigweed; [5]
  Plant response rating, Pigweed: 0
pigweed; [6]
  Plant response rating, Pigweed: 45
pigweed; [7]
  Plant response rating, Pigweed: 70
pigweed; [8]
  Pigweed plant response rating: 100
rice; 62 g ai/ha
  Plant response rating, Rice: 55
rice; 250 g ai/ha
  Plant response rating, Rice: 65
lambsquarters; [11]
  Lambsquarters plant response rating: 100
lambsquarters; [3]
  Lambsquarters plant response rating: 100
lambsquarters; Postemergence, 31 g ai/ha
  Plant response rating (0 to 100), Lambsquarters: 0
lambsquarters; [4]
  Plant response rating, Lambsquarters: 0
lambsquarters; [5]
  Plant response rating, Lambsquarters: 0
lambsquarters; [6]
  Plant response rating, Lambsquarters: 50
lambsquarters; [7]
  Plant response rating, Lambsquarters: 100
lambsquarters; [8]
  Lambsquarters plant response rating: 100
